According to publication PMC2717937 (Journal of Experimental & Clinical Cancer Research : CR, 2009):
Counter-ions that a name gives are not always drawn. Like-named read-outs stand apart in the source and are kept apart here.

Legend:
[1] = imatinib 50 mg/kg oral, vehicle 30 min before
[2] = vehicle 30 min before, listed as Imatinib alone
[3] = oral; cited from earlier work
[4] = imatinib 50 mg/kg oral, vehicle 30 min before; remark: listed apart in the source
in vivo [5] = settings: Balb/C, mouse, plasma, po, 50 mg/kg
in vivo [6] = settings: Balb/C, mouse, liver, po, 50 mg/kg
in vivo [7] = settings: Balb/C, mouse, brain, po, 50 mg/kg
[8] = tested on: ABCB1 in CD56+ lymphocytes; settings: healthy volunteers, tariquidar 2 mg/kg i.v. or ≥ 200 mg orally; cited from earlier work
drug efflux = tested on: drug efflux; parameters: method as in PMID 11212278; settings: cited from earlier work
[9] = elacridar with imatinib 12.5 mg/kg vs imatinib alone; cited from earlier work
[10] = listed as imatinib plus vehicle

## Cc1ccc(NC(=O)c2ccc(CN3CCN(C)CC3)cc2)cc1Nc1nccc(-c2cccnc2)n1 [Imatinib, Imatinib mesylate]
[1]
  Liver AUC0–24: 68,330.8 hr*ng/g
  Liver AUC0–24 (text): 68,331 hr*ng/mL
[1]; listed as Imatinib alone
  Liver Cmax: 26,279.7 ng/g
[1]; [10]
  Liver Cmax: 26,280 ng/g
[2]; imatinib 50 mg/kg oral gavage, mean, n = 3 per time point
  Plasma Cmax: 5,710.5 ng/mL
[2]; imatinib 50 mg/kg oral
  Plasma AUC0–24: 12,167.5 hr*ng/mL
[3]
  Bioavailability: approximately 98%
[4]
  Brain AUC0–4: 574.23 ng·h/g
[4]; listed as Imatinib alone
  Brain Cmax (corrected for brain vascular space): 194.7 ng/g
[4]; [10]
  Brain Cmax (corrected for brain vascular space): 195 ng/g
In vivo [5]
  Tmax: 10.2 min
In vivo [5]; Plasma AUC0–24, imatinib 50 mg/kg oral, vehicle 30 min before
  AUC(0-t): 12200 ng·h/mL
In vivo [5]; Plasma Cmax, imatinib 50 mg/kg oral gavage, vehicle 30 min before, mean, n = 3 per time point
  Cmax: 5710 ng/mL
In vivo [6]
  Tmax: 15 min
In vivo [7]
  Tmax: 120 min

## COc1cc2c(cc1OC)CN(CCc1ccc(NC(=O)c3cc(OC)c(OC)cc3NC(=O)c3cnc4ccccc4c3)cc1)CC2 [Tariquidar]
[8]
  Duration of 100% inhibition of ABCB1 in CD56+ lymphocytes: over 24 hours
  Inhibition of ABCB1 in CD56+ lymphocytes: 100%
Drug efflux
  Persistence of inhibitory effect on drug efflux in vitro: persists for over two hours

## COc1cc2c(cc1OC)CN(CCc1ccc(NC(=O)c3cccc4c(=O)c5cccc(OC)c5[nH]c34)cc1)CC2 [elacridar]
[9]
  Fold increase in brain-to-plasma concentration ratio of imatinib: 9.3 fold
